Some test systems named below: SN12C; NCI-H460; NCI-H23; K562; HL-60; UO-31; OVCAR-3; OVCAR-5; OVCAR-8; UACC-62; SK-MEL-2; OVCAR-4; NCI-H226; Malme-3M; U-251; CCRF-CEM; NCI-H522; A549; SW-620; EKVX.
What all share (test): NCI anticancer screen, dose series, 48 h

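Test compounds were applied to cells in 96-well plates for 48 hours at 5 doses. At the GI50, growth is halved.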 Active and inactive are the calls of the source. Rule as the data show it: active = GI50 up to about 1.1 µM and inactive = higher. Some results are limits rather than exact numbers.

As for `COc1ccc2c(c1)C(=O)/C(=C/c1ccccc1)C2`, the GI50 with SN12C was > 100 µM (inactive); in the assay on NCI-H460, 34 µM (inactive); with NCI-H23 it was 42.4 µM (inactive); in the assay with K562 it was 29 µM (inactive); in the assay on HL-60, > 10 µM (inactive); with UO-31, 49.7 µM (inactive). Further, the GI50 is 39.2 µM (inactive) in the assay on OVCAR-3; 52.5 µM (inactive) in the assay on OVCAR-5; > 100 µM (inactive) with OVCAR-8; 52.6 µM (inactive) in the assay on UACC-62; 74.1 µM (inactive) in the assay with SK-MEL-2; 55.7 µM (inactive) in the assay with OVCAR-4. Further, the GI50 was 25 µM (inactive) in the assay on NCI-H226; > 100 µM (inactive) with Malme-3M; > 100 µM (inactive) with U-251; 11.3 µM (inactive) in the assay with CCRF-CEM; 45.2 µM (inactive) with NCI-H522.

For the molecule `C/C(=N/NC(N)=S)c1ccc2ccccc2c1`, the GI50 with SN12C was 32.7 µM (inactive); with NCI-H460, 24.2 µM (inactive); with A549, 24.4 µM (inactive); in the assay with NCI-H23, 29.7 µM (inactive); with HL-60, 15 µM (inactive); in the assay on OVCAR-3, 30.4 µM (inactive). Moreover, the GI50 with OVCAR-5 was 24 µM (inactive); in the assay on OVCAR-8 it was 32.9 µM (inactive); in the assay on UACC-62, 9.42 µM (inactive); in the assay on SK-MEL-2 it was 15.8 µM (inactive); in the assay on OVCAR-4, 28.3 µM (inactive); with NCI-H226 it was 39.8 µM (inactive). Moreover, the GI50 in the assay with Malme-3M was 41 µM (inactive); with SW-620 it was 33.3 µM (inactive); in the assay on EKVX it was 0.443 µM (active); in the assay on U-251 it was 24.8 µM (inactive); with CCRF-CEM, 22.5 µM (inactive); in the assay with NCI-H522, 17.6 µM (inactive).

With `CN(Cc1cnc2nc(N)nc(N)c2n1)c1ccc(C(=O)NC(CCC(=O)O)C(=O)O)cc1C(F)(F)F` (configuration not stated), the GI50 in the assay on SN12C, with NCI-H460, in the assay on A549, in the assay on NCI-H23, in the assay with K562 and in the assay with HL-60 was < 0.01 µM (active) throughout. The GI50 with UO-31 was < 0.01 µM (active); with OVCAR-5, < 0.01 µM (active); in the assay with OVCAR-8, < 0.01 µM (active); in the assay on UACC-62 it was < 0.01 µM (active); in the assay on SK-MEL-2, > 100 µM (inactive); in the assay on OVCAR-4, > 100 µM (inactive). Besides, the GI50 is > 100 µM (inactive) in the assay on Malme-3M; < 0.01 µM (active) with SW-620; > 27 µM (inactive) in the assay with EKVX; < 0.01 µM (active) in the assay with U-251; < 0.01 µM (active) in the assay on CCRF-CEM; < 0.01 µM (active) in the assay on NCI-H522.

As for `CCOc1ccc(NC(=O)C(=O)CC(=O)c2sc(NNC(C)=O)nc2C)cc1`, the GI50 in the assay with SN12C, in the assay with NCI-H460, in the assay on A549, with NCI-H23, in the assay with K562 and with HL-60 was > 100 µM (inactive) each time. Moreover, the GI50 with UO-31, with OVCAR-5, in the assay with OVCAR-8, in the assay with UACC-62, in the assay on SK-MEL-2 and in the assay on OVCAR-4 was > 100 µM (inactive) each time. Besides, the GI50 in the assay on NCI-H226 was > 100 µM (inactive); with SW-620 it was > 100 µM (inactive); with EKVX, 40.9 µM (inactive); in the assay with U-251, > 100 µM (inactive); in the assay with CCRF-CEM it was > 100 µM (inactive); in the assay on NCI-H522, > 100 µM (inactive).

Consider `C/C(=N\Oc1cc(Cl)ncn1)c1ccccn1`, for which the GI50 with SN12C was > 100 µM (inactive); with NCI-H460, 25.3 µM (inactive); in the assay with A549 it was 86.7 µM (inactive); in the assay with NCI-H23, 34.1 µM (inactive); in the assay on K562, 56.5 µM (inactive); in the assay with UO-31, 52 µM (inactive). The GI50 is 20.2 µM (inactive) in the assay with OVCAR-3; 37.8 µM (inactive) with OVCAR-5; > 100 µM (inactive) with OVCAR-8; 47.5 µM (inactive) in the assay with UACC-62; 14.1 µM (inactive) in the assay with SK-MEL-2; > 100 µM (inactive) with OVCAR-4. Further, the GI50 in the assay on NCI-H226 was > 100 µM (inactive); in the assay with Malme-3M it was 61.9 µM (inactive); in the assay on SW-620, 84.7 µM (inactive); with EKVX it was 38.5 µM (inactive); with U-251 it was 60.5 µM (inactive); in the assay with CCRF-CEM, 34.4 µM (inactive). Also, the GI50 in the assay on NCI-H522 was 17.9 µM (inactive).

With `CN(C(=O)C1(C(=O)C=[N+]=[N-])CC1)c1ccccc1`, the GI50 with SN12C, with NCI-H460, in the assay with A549, in the assay with NCI-H23, in the assay on K562 and with HL-60 was > 100 µM (inactive) in each case. Also, the GI50 in the assay with UO-31, in the assay with OVCAR-3, with OVCAR-5, in the assay with OVCAR-8, in the assay with UACC-62 and with SK-MEL-2 was > 100 µM (inactive) throughout. The GI50 in the assay with NCI-H226, in the assay on Malme-3M, in the assay on SW-620, in the assay with EKVX, with U-251 and in the assay on CCRF-CEM was > 100 µM (inactive) throughout. Moreover, in the assay with NCI-H522, the GI50 was 83.6 µM (inactive).

For `CCOC(=O)c1csc(NC(=O)CCN2CCCC2)n1`, the GI50 in the assay on NCI-H460, in the assay on A549, in the assay with NCI-H23, with K562, in the assay on HL-60 and with UO-31 was > 100 µM (inactive) throughout. Moreover, the GI50 with OVCAR-3, in the assay on OVCAR-5, with OVCAR-8, in the assay on UACC-62, in the assay with SK-MEL-2 and in the assay on OVCAR-4 was > 100 µM (inactive) each time. The GI50 with NCI-H226, in the assay with SW-620, in the assay on EKVX, in the assay on U-251 and with CCRF-CEM was > 100 µM (inactive) in each case.

For `CC(=O)OCc1nnn2c1CCC2`, the GI50 is > 100 µM (inactive) in the assay on SN12C; > 100 µM (inactive) in the assay on NCI-H460; > 100 µM (inactive) in the assay on A549; > 10 µM (inactive) in the assay on NCI-H23; > 100 µM (inactive) in the assay on K562; > 100 µM (inactive) in the assay on HL-60. The GI50 in the assay on UO-31, in the assay on OVCAR-3, in the assay on OVCAR-5, in the assay with OVCAR-8, with UACC-62 and with SK-MEL-2 was > 100 µM (inactive) each time. The GI50 in the assay on OVCAR-4, in the assay on Malme-3M, in the assay on SW-620, with EKVX, in the assay with U-251 and with CCRF-CEM was > 100 µM (inactive) throughout. In addition, in the assay on NCI-H522, the GI50 was > 100 µM (inactive).

Turning to `O=C1CC2(CCC(O)(c3cccs3)C(C(=O)c3cccs3)C2)C(=O)c2ccccc2N1` (configuration not stated), the GI50 was > 100 µM (inactive) in the assay on SN12C; 16.5 µM (inactive) in the assay with NCI-H460; 95.7 µM (inactive) in the assay on A549; > 100 µM (inactive) in the assay with NCI-H23; 40.8 µM (inactive) with K562; 29.2 µM (inactive) in the assay on HL-60. Moreover, the GI50 is > 100 µM (inactive) in the assay on UO-31; 63.8 µM (inactive) in the assay on OVCAR-3; > 100 µM (inactive) in the assay on OVCAR-5; > 100 µM (inactive) with OVCAR-8; > 100 µM (inactive) in the assay on UACC-62; > 100 µM (inactive) in the assay on SK-MEL-2. Besides, the GI50 in the assay with NCI-H226 was > 100 µM (inactive); with Malme-3M it was > 100 µM (inactive); with SW-620, > 100 µM (inactive); with EKVX, > 100 µM (inactive); in the assay on U-251 it was 90.4 µM (inactive); with CCRF-CEM, 22.5 µM (inactive).

As to `O=C(C[C@H](NC(=O)OCc1ccccc1)C(=O)NC1Cc2ccccc2OC1=O)OCc1ccccc1` (some centres not stated), the GI50 with SN12C is 36.4 µM (inactive); in the assay on NCI-H460, 41.6 µM (inactive); in the assay with NCI-H23, > 100 µM (inactive); with K562, 15.7 µM (inactive); in the assay on HL-60, > 10 µM (inactive); in the assay on UO-31, > 100 µM (inactive). Also, the GI50 is > 100 µM (inactive) in the assay with OVCAR-3; > 100 µM (inactive) with OVCAR-5; > 100 µM (inactive) with OVCAR-8; > 10 µM (inactive) with UACC-62; > 100 µM (inactive) in the assay on SK-MEL-2; > 100 µM (inactive) in the assay with NCI-H226. Moreover, the GI50 with Malme-3M is > 100 µM (inactive); in the assay with U-251, > 100 µM (inactive); in the assay with CCRF-CEM, 17.4 µM (inactive); with NCI-H522, > 100 µM (inactive).

`CCOC(=O)NC(C(F)(F)F)(C(F)(F)F)P(=O)(OCC(C)C)OCC(C)C`: the GI50 in the assay on SN12C was 16.2 µM (inactive); in the assay with NCI-H460, 19.2 µM (inactive); in the assay with A549, 22.3 µM (inactive); in the assay with K562, 7.28 µM (inactive); with HL-60, 2.97 µM (inactive); in the assay on UO-31, 7.35 µM (inactive). For the same molecule, the GI50 in the assay on OVCAR-3 is 19.1 µM (inactive); with OVCAR-5, 18.6 µM (inactive); in the assay on OVCAR-8, 5.41 µM (inactive); in the assay on UACC-62, 11.7 µM (inactive); in the assay on SK-MEL-2 it was 14.9 µM (inactive); in the assay with NCI-H226, 13.9 µM (inactive). The GI50 with Malme-3M was 16.2 µM (inactive); in the assay with SW-620, 3.82 µM (inactive); with EKVX, 21.6 µM (inactive); with U-251, 5.98 µM (inactive); in the assay on CCRF-CEM it was 2.67 µM (inactive); in the assay with NCI-H522 it was 2.49 µM (inactive).

The values are drawn from ChEMBL document CHEMBL1201862, “PubChem BioAssay data set” (2004).
